Experimental data taken from PubChem BioAssay AID1259407 (Chemical Carcinogenesis Research Information System (CCRIS), 2018).
Calls of active or inactive are those of the source. How the calls were made is not given here.

Tested on: CCRIS mutagenicity, Ames/micronucleus/aberration tests
Test: CCRIS mutagenicity studies
Settings: Test System: AMES SALMONELLA TYPHIMURIUM

Measured: mutagenic call

Cc1cc(N)c(C)c([N+](=O)[O-])c1N
inactive: Strain/Indicator: TA98, Metabolic Activation: NONE, Method: STANDARD PLATE inactive; negative | Strain/Indicator: TA100, Metabolic Activation: NONE, Method: STANDARD PLATE inactive; negative | Strain/Indicator: TA100, Metabolic Activation: RAT, LIVER, S-9, AROCLOR 1254, Method: STANDARD PLATE inactive; negative | Strain/Indicator: TA1535, Metabolic Activation: NONE, Method: STANDARD PLATE inactive; negative | Strain/Indicator: TA1535, Metabolic Activation: RAT, LIVER, S-9, AROCLOR 1254, Method: STANDARD PLATE inactive; negative | Strain/Indicator: TA1537, Metabolic Activation: NONE, Method: STANDARD PLATE inactive; negative | Strain/Indicator: TA1537, Metabolic Activation: RAT, LIVER, S-9, AROCLOR 1254, Method: STANDARD PLATE inactive; negative | Strain/Indicator: TA1538, Metabolic Activation: NONE, Method: STANDARD PLATE inactive; negative
active: Strain/Indicator: TA98, Metabolic Activation: RAT, LIVER, S-9, AROCLOR 1254, Method: STANDARD PLATE active; positive | Strain/Indicator: TA1538, Metabolic Activation: RAT, LIVER, S-9, AROCLOR 1254, Method: STANDARD PLATE active; positive

O=[N+]([O-])c1ccc2c(c1)Oc1ccc([N+](=O)[O-])cc1O2
inactive: Strain/Indicator: TA98(NR), Metabolic Activation: NONE, Method: PREINCUBATION inactive; negative | Strain/Indicator: TA100, Metabolic Activation: NONE, Method: PREINCUBATION inactive; negative | Strain/Indicator: TA100, Metabolic Activation: NONE, Method: SUSPENSION inactive; negative | Strain/Indicator: TA100, Metabolic Activation: RAT, LIVER, S-9, PCB, Method: PREINCUBATION inactive; negative | Strain/Indicator: TA100, Metabolic Activation: RAT, LIVER, S-9, PCB, Method: SUSPENSION inactive; negative
active: Strain/Indicator: TA98(1,8-DNP6), Metabolic Activation: NONE, Method: PREINCUBATION active; positive | Strain/Indicator: TA98(1,8-DNP6), Metabolic Activation: NONE, Method: SUSPENSION active; positive | Strain/Indicator: TA98(1,8-DNP6), Metabolic Activation: RAT, LIVER, S-9, PCB (5%), Method: PREINCUBATION active; positive | Strain/Indicator: TA98(NR), Metabolic Activation: NONE, Method: SUSPENSION active; positive | Strain/Indicator: TA98(NR), Metabolic Activation: RAT, LIVER, S-9 (15%), Method: PREINCUBATION active; positive | Strain/Indicator: TA98(NR), Metabolic Activation: RAT, LIVER, S-9, 3-METHYLCHOLANTHRENE (15%), Method: PREINCUBATION active; positive | Strain/Indicator: TA98(NR), Metabolic Activation: RAT, LIVER, S-9, BETA-NAPHTHOFLAVONE (15%), Method: PREINCUBATION active; positive | Strain/Indicator: TA98(NR), Metabolic Activation: RAT, LIVER, S-9, PCB (5 OR 15%), Method: PREINCUBATION active; positive | Strain/Indicator: TA98(NR), Metabolic Activation: RAT, LIVER, S-9, PHENOBARBITAL (15%), Method: PREINCUBATION active; positive | Strain/Indicator: TA98, Metabolic Activation: NONE, Method: PREINCUBATION active; positive | Strain/Indicator: TA98, Metabolic Activation: NONE, Method: SUSPENSION active; positive | Strain/Indicator: TA98, Metabolic Activation: RAT, LIVER, S-9, PCB (5%), Method: PREINCUBATION active; positive | Strain/Indicator: TA98, Metabolic Activation: RAT, LIVER, S-9, PCB, Method: SUSPENSION active; positive
